Data taken from US20210122730A1, “GLUCOCORTICOID RECEPTOR MODULATORS” (ORIC Pharmaceuticals, Inc., priority 2017, published 2021).

Assays:
CYP2C8 = target: T1, CYP2C8 (Homo sapiens, UniProt P10632); assay: CYP Inhibition Assay (CYP2C8, human liver microsomes, paclitaxel substrate); assay type: in vitro ADME; conditions: pH 7.4; pooled human liver microsomes 0.1 mg/mL, probe substrate paclitaxel
T1 construct: Pooled human microsomes were obtained from Sekisui XenoTech, KS; tissue Sekisui XenoTech, KS; host or cells: pooled human liver microsomes
T1 sequence (P10632 1-490): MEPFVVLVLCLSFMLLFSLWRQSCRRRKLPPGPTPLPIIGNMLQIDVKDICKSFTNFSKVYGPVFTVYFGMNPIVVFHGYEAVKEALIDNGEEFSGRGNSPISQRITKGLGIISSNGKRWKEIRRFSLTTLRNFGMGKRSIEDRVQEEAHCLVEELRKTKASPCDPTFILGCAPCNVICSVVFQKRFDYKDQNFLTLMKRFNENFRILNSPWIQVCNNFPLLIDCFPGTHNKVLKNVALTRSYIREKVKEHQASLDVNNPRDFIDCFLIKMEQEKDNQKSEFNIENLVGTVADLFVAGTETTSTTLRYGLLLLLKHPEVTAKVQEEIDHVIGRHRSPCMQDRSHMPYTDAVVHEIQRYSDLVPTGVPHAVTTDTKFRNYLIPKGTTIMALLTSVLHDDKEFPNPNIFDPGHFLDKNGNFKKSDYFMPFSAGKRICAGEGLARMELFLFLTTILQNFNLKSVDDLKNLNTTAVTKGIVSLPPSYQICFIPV
How it was run: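 Pooled human liver microsomes (0.1 mg/mL) in 50 mM potassium phosphate pH 7.4 with compound, started with 1 mM NADPH, 5 min at 37° C, duplicate.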

GR = target: T2, GR (Homo sapiens, UniProt P04150); assay: In Vitro GR Luciferase Reporter Assay (antagonist mode, CHO-K1-GR-MMTV-Luc reporter cells); assay type: cell-based; conditions: antagonist mode, 10 nM Dexamethasone
T2 construct: expressed in transfected cells; host or cells: CHO-K1
T2 sequence (P04150 1-777): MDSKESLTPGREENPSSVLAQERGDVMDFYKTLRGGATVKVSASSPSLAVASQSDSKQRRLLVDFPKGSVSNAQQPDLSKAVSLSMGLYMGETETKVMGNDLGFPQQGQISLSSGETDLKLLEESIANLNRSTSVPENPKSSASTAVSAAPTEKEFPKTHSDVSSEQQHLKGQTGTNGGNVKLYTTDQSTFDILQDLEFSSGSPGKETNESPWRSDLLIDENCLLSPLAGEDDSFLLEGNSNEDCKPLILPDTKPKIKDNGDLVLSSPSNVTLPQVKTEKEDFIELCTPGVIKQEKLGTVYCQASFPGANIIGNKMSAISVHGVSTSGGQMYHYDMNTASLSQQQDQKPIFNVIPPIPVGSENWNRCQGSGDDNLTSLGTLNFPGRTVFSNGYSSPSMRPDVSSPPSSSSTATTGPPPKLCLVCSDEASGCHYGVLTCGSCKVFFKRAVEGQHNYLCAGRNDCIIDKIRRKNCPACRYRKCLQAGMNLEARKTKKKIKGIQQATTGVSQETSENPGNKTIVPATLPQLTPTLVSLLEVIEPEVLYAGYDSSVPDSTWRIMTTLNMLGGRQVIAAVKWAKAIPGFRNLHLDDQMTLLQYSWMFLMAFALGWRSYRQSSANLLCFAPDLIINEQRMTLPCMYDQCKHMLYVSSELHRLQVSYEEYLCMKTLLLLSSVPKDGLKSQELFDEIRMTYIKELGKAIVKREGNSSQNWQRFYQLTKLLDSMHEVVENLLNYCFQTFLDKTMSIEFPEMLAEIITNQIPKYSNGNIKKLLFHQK
How it was run: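 CHO-K1-GR-MMTV-Luc cells in phenol red-free DMEM with 10% CSS, stimulated with 10 nM dexamethasone (final) and treated with 8-point 1:5 compound dilutions for about 18-24 h at 37° C. Luciferase measured by OneGlo luminescence; IC50 derived for inhibition of GR activity.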

Row | Structure (SMILES) | inhibition at 5 min (CYP2C8) | IC50 (GR)
1 | Cn1cnc(S(=O)(=O)N(CC(F)F)[C@H]2CCC3=Cc4c(cnn4-c4ccc(F)cc4)C[C@]3(C(=O)c3cc(C(F)(F)F)ccn3)C2)n1 [Example 330, N-(2,2-difluoroethyl)-N-((4aS,6S)-1-(4-fluorophenyl)-4a-(4-(trifluoromethyl)picolinoyl)-4,4a,5,6,7,8-hexahydro-1H-benzo[f]indazol-6-yl)-1-methyl-1H-1,2,4-triazole-3-sulfonamide] | 25 to 50% | ≤ 100 nM
2 | Cn1cnc(S(=O)(=O)N(CC(F)F)[C@H]2CCC3=Cc4c(cnn4-c4ccc(F)cc4)C[C@]3(C(=O)c3ncc(C(F)(F)F)s3)C2)n1 [Example 331, N-(2,2-difluoroethyl)-N-((4aS,6S)-1-(4-fluorophenyl)-4a-(5-(trifluoromethyl)thiazole-2-carbonyl)-4,4a,5,6,7,8-hexahydro-1H-benzo[f]indazol-6-yl)-1-methyl-1H-1,2,4-triazole-3-sulfonamide] | ≤ 25% | ≤ 100 nM
3 | Cn1cnc(S(=O)(=O)N(C2CC(F)(F)C2)[C@H]2CCC3=Cc4c(cnn4-c4ccc(F)cc4)C[C@]3(C(=O)c3ncc(C(F)(F)F)s3)C2)c1 [Example 332, N-(3,3-difluorocyclobutyl)-N-((4aS,6S)-1-(4-fluorophenyl)-4a-(5-(trifluoromethyl)thiazole-2-carbonyl)-4,4a,5,6,7,8-hexahydro-1H-benzo[f]indazol-6-yl)-1-methyl-1H-imidazole-4-sulfonamide] | ≤ 25% | ≤ 100 nM
4 | O=C(c1ncc(C(F)(F)F)s1)[C@]12Cc3cnn(-c4ccc(F)cc4)c3C=C1CC[C@H](N(C1CC1)S(=O)(=O)c1ccc(Cl)cn1)C2 [Example 333, 5-chloro-N-cyclopropyl-N-((4aS,6S)-1-(4-fluorophenyl)-4a-(5-(trifluoromethyl)thiazole-2-carbonyl)-4,4a,5,6,7,8-hexahydro-1H-benzo[f]indazol-6-yl)pyridine-2-sulfonamide] | ≤ 25% | ≤ 100 nM
5 | O=C(c1cc(C(F)(F)F)ccn1)[C@]12Cc3cnn(-c4ccc(F)cc4)c3C=C1CC[C@H](N(C1CC1)S(=O)(=O)c1cncc(Cl)c1)C2 [Example 334, 5-chloro-N-cyclopropyl-N-((4aS,6S)-1-(4-fluorophenyl)-4a-(4-(trifluoromethyl)picolinoyl)-4,4a,5,6,7,8-hexahydro-1H-benzo[f]indazol-6-yl)pyridine-3-sulfonamide] | 50 to 75% | ≤ 100 nM
6 | Cn1cnc(S(=O)(=O)N(C2CC(F)(F)C2)[C@H]2CCC3=Cc4c(cnn4-c4ccc(F)cc4)C[C@]3(C(=O)c3cc(F)ccn3)C2)c1 [Example 335, N-(3,3-difluorocyclobutyl)-N-((4aS,6S)-1-(4-fluorophenyl)-4a-(4-fluoropicolinoyl)-4,4a,5,6,7,8-hexahydro-1H-benzo[f]indazol-6-yl)-1-methyl-1H-imidazole-4-sulfonamide] | ≤ 25% | ≤ 100 nM
7 | Cn1ccc(S(=O)(=O)N(CC(F)F)[C@H]2CCC3=Cc4c(cnn4-c4ccc(F)cc4)C[C@]3(C(=O)c3ncc(C(F)(F)F)s3)C2)n1 [Example 337, N-(2,2-difluoroethyl)-N-((4aS,6S)-1-(4-fluorophenyl)-4a-(5-(trifluoromethyl)thiazole-2-carbonyl)-4,4a,5,6,7,8-hexahydro-1H-benzo[f]indazol-6-yl)-1-methyl-1H-pyrazole-3-sulfonamide] | 50 to 75% | ≤ 100 nM
8 | Cn1ccc(S(=O)(=O)N(CC(F)F)[C@H]2CCC3=Cc4c(cnn4-c4ccc(F)cc4)C[C@]3(C(=O)c3cc(F)ccn3)C2)n1 [Example 338, N-(2,2-difluoroethyl)-N-((4aS,6S)-1-(4-fluorophenyl)-4a-(4-fluoropicolinoyl)-4,4a,5,6,7,8-hexahydro-1H-benzo[f]indazol-6-yl)-1-methyl-1H-pyrazole-3-sulfonamide] | 75 to 90% | ≤ 100 nM
9 | Cn1cnc(S(=O)(=O)N(C2CC(F)(F)C2)[C@H]2CCC3=Cc4c(cnn4-c4ccc(F)cc4)C[C@]3(C(=O)c3cc(Cl)ccn3)C2)c1 [Example 339, N-((4aS,6S)-4a-(4-chloropicolinoyl)-1-(4-fluorophenyl)-4,4a,5,6,7,8-hexahydro-1H-benzo[f]indazol-6-yl)-N-(3,3-difluorocyclobutyl)-1-methyl-1H-imidazole-4-sulfonamide] | 25 to 50% | ≤ 100 nM
10 | O=C(c1cc(C(F)(F)F)ccn1)[C@]12Cc3cnn(-c4ccc(F)cc4)c3C=C1CC[C@H](N(CC(F)F)S(=O)(=O)c1ccc(Cl)nc1)C2 [Example 341, 6-chloro-N-(2,2-difluoroethyl)-N-((4aS,6S)-1-(4-fluorophenyl)-4a-(4-(trifluoromethyl)picolinoyl)-4,4a,5,6,7,8-hexahydro-1H-benzo[f]indazol-6-yl)pyridine-3-sulfonamide] | 25 to 50% | ≤ 100 nM
11 | CO[C@]1(C)C[C@H](N([C@H]2CCC3=Cc4c(cnn4-c4ccc(F)cc4)C[C@]3(C(=O)c3ncc(C(F)(F)F)s3)C2)S(=O)(=O)c2ccn(C)n2)C1 [Example 342, N-((4aS,6S)-1-(4-fluorophenyl)-4a-(5-(trifluoromethyl)thiazole-2-carbonyl)-4,4a,5,6,7,8-hexahydro-1H-benzo[f]indazol-6-yl)-N-((1s,3R)-3-methoxy-3-methylcyclobutyl)-1-methyl-1H-pyrazole-3-sulfonamide] | 25 to 50% | ≤ 100 nM
12 | C[C@]1(O)C[C@@H](N([C@H]2CCC3=Cc4c(cnn4-c4ccc(F)cc4)C[C@]3(C(=O)c3cc(Cl)ccn3)C2)S(=O)(=O)c2ccc(F)cc2)C1 [Example 344, N-((4aS,6S)-4a-(4-chloropicolinoyl)-1-(4-fluorophenyl)-4,4a,5,6,7,8-hexahydro-1H-benzo[f]indazol-6-yl)-4-fluoro-N-((1s,3R)-3-hydroxy-3-methylcyclobutyl)benzenesulfon-amide] | 25 to 50% | ≤ 100 nM
13 | O=C(c1cc(F)ccn1)[C@]12Cc3cnn(-c4ccc(F)cc4)c3C=C1CC[C@H](N(C1CC(F)(F)C1)S(=O)(=O)c1ccc(Cl)nc1)C2 [Example 346, 6-chloro-N-(3,3-difluorocyclobutyl)-N-((4aS,6S)-1-(4-fluorophenyl)-4a-(4-fluoropicolinoyl)-4,4a,5,6,7,8-hexahydro-1H-benzo[f]indazol-6-yl)pyridine-3-sulfonamide] | 25 to 50% | ≤ 100 nM
14 | Cn1cnc(S(=O)(=O)N(C2CC2)[C@H]2CCC3=Cc4c(cnn4-c4ccc(F)cc4)C[C@]3(C(=O)c3cc(F)ccn3)C2)n1 [Example 347, N-cyclopropyl-N-((4aS,6S)-1-(4-fluorophenyl)-4a-(4-fluoropicolinoyl)-4,4a,5,6,7,8-hexahydro-1H-benzo[f]indazol-6-yl)-1-methyl-1H-1,2,4-triazole-3-sulfonamide] | 25 to 50% | ≤ 100 nM
15 | Cn1cnc(S(=O)(=O)N(C2CC2)[C@H]2CCC3=Cc4c(cnn4-c4ccc(F)cc4)C[C@]3(C(=O)c3cc(Cl)ccn3)C2)n1 [Example 348, N-((4aS,6S)-4a-(4-chloropicolinoyl)-1-(4-fluorophenyl)-4,4a,5,6,7,8-hexahydro-1H-benzo[f]indazol-6-yl)-N-cyclopropyl-1-methyl-1H-1,2,4-triazole-3-sulfonamide] | 25 to 50% | ≤ 100 nM
16 | Cn1ccc(S(=O)(=O)N(C2CC(F)(F)C2)[C@H]2CCC3=Cc4c(cnn4-c4ccc(F)cc4)C[C@]3(C(=O)c3cc(Cl)ccn3)C2)n1 [Example 349, N-((4aS,6S)-4a-(4-chloropicolinoyl)-1-(4-fluorophenyl)-4,4a,5,6,7,8-hexahydro-1H-benzo[f]indazol-6-yl)-N-(3,3-difluorocyclobutyl)-1-methyl-1H-pyrazole-3-sulfonamide] | 25 to 50% | ≤ 100 nM
